Consider 13 molecules from ChEMBL document CHEMBL3576838, “Synthesis and in vitro and in vivo biological evaluation of substituted nitroquinoxalin-2-ones and 2,3-diones as novel trichomonacidal agents” (Eur J Med Chem, 2015).

Where only a bound is given, the exact number is not on record here.

Data set [1] in a line: Selectivity index, ratio of CC50 for African green monkey Vero cells to IC50 for Trichomonas vaginalis JH31A#4 trophozite. In kind it is functional.
The test system of data set [2] is Trichomonas vaginalis. Put plainly: Trichomonicidal activity against Trichomonas vaginalis JH31A#4 trophozite assessed as inhibition of parasite growth at 300 uM after 24 hrs by resazurin redox dye based fluorimetric microtiter method. In kind it is functional. The settings on record: JH31A#4, 24 h. In general terms: Alamar Blue is a resazurin reagent that responds to reducing activity.

The subject of the next data set is Vero. The data set can be described thus: Cytotoxicity against African green monkey Vero cells at 300 uM after 24 hrs by resazurin redox dye based fluorimetric microtiter method. Format: cell-based. The following applies: chlorocebus sabaeus.
The test system of data set [3] is Trichomonas vaginalis. Put plainly: Trichomonicidal activity against Trichomonas vaginalis JH31A#4 trophozite assessed as inhibition of parasite growth at 150 uM after 24 hrs by resazurin redox dye based fluorimetric microtiter method. Format: functional. The following applies: JH31A#4, 24 h.
Data set [4] concerns Trichomonas vaginalis. Put plainly: Trichomonicidal activity against Trichomonas vaginalis JH31A#4 trophozite assessed as inhibition of parasite growth at 18.75 uM after 24 hrs by resazurin redox dye based fluorimetric microtiter method. Format: functional. The settings on record: JH31A#4, 24 h.
For data set [5], the system named is Trichomonas vaginalis. The data set can be described thus: Trichomonicidal activity against Trichomonas vaginalis JH31A#4 trophozite assessed as inhibition of parasite growth at 37.5 uM after 24 hrs by resazurin redox dye based fluorimetric microtiter method. Format: functional. The settings on record: JH31A#4, 24 h.
The nature of data set [6]: Cytotoxicity against African green monkey Vero cells assessed as inhibition of cell growth after 24 hrs by resazurin redox dye based fluorimetric microtiter method. The settings on record: chlorocebus sabaeus.
Data set [7] relates to Trichomonas vaginalis. Put plainly: Trichomonicidal activity against Trichomonas vaginalis JH31A#4 trophozite assessed as inhibition of parasite growth at 75 uM after 24 hrs by resazurin redox dye based fluorimetric microtiter method. Format: functional. The settings on record: JH31A#4, 24 h.
In data set [8] the test system is Trichomonas vaginalis. Put plainly: Trichomonicidal activity against Trichomonas vaginalis JH31A#4 trophozite assessed as inhibition of parasite growth after 24 hrs by resazurin redox dye based fluorimetric microtiter method. The settings on record: JH31A#4, 24 h. Format: functional, organism-based.
The subject of data set [9] is Trichomonas vaginalis. Put plainly: Trichomonicidal activity against Trichomonas vaginalis JH31A#4 trophozite assessed as inhibition of parasite growth at 9.37 uM after 24 hrs by resazurin redox dye based fluorimetric microtiter method. Format: functional. The settings on record: JH31A#4, 24 h.
The test system of data set [10] is Trichomonas vaginalis. The data set can be described thus: Trichomonicidal activity against Trichomonas vaginalis JH31A#4 trophozite assessed as inhibition of parasite growth at 10 ug/ml after 24 hrs by resazurin redox dye based fluorimetric microtiter method. In kind it is functional. The following applies: JH31A#4, 24 h, read-out: GI.

For orientation: inhibition means the percentage by which the read-out fell short of the control. What is called CC50 is the concentration giving 50% cytotoxicity. As usually defined, the IC50 is the point on the concentration scale where inhibition reaches its midpoint. As to `CN1C(=O)CN(CCCO)c2ccc([N+](=O)[O-])cc21`, the “Ratio CC50/IC50” value in [1] is recorded as above 10. In addition, in the data set on Trichomonas vaginalis [2], the inhibition at 300 µM was 94.8%. In addition, in the data set with Vero, the Activity is 5.07%. Moreover, the inhibition at 150 µM in the data set with Trichomonas vaginalis [3] was 77.2%. The inhibition at 18.75 µM in the data set with Trichomonas vaginalis [4] was found to be 19%. In addition, the inhibition at 37.5 µM in the data set with Trichomonas vaginalis [5] was determined as 33.4%. The 50% cytotoxic concentration (CC50) at 24 h in data set [6] was above 300 µM. Also, the inhibition at 75 µM in the data set with Trichomonas vaginalis [7] was found to be 48.4%. Moreover, the IC50 with Trichomonas vaginalis [8] was 60.7 µM. In addition, the inhibition at 9.37 µM in the data set on Trichomonas vaginalis [9] worked out at 6.39%.
In the case of `CN1C(=O)CN(CCCCCCCl)c2ccc([N+](=O)[O-])cc21`, in the data set with Trichomonas vaginalis [10], the inhibition of growth at 10 µg/mL came to 94%.
Take `Cn1c(=O)c(=O)n(CCCCCCCl)c2ccc([N+](=O)[O-])cc21`: the “Ratio CC50/IC50” value in data set [1] was above 10. Moreover, in the data set on Trichomonas vaginalis [2], the inhibition at 300 µM came out at 92.6%. This molecule also displayed an Activity with Vero of 14.14%. Moreover, the inhibition at 150 µM with Trichomonas vaginalis [3] is 84.7%. Also, the inhibition at 18.75 µM in the data set with Trichomonas vaginalis [4] came to 42.1%. Further, the inhibition at 37.5 µM in the data set with Trichomonas vaginalis [5] turned out to be 53.1%. Besides, in data set [6], the CC50 at 24 h is above 300 µM. Besides, the inhibition at 75 µM in the data set with Trichomonas vaginalis [7] was found to be 75.5%. The IC50 with Trichomonas vaginalis [8] turned out to be 25.4 µM. The inhibition at 9.37 µM in the data set with Trichomonas vaginalis [9] amounted to 31.6%.
As to `O=C1CN(CCCCCl)c2ccc([N+](=O)[O-])cc2N1`, the inhibition of growth at 10 µg/mL in the data set with Trichomonas vaginalis [10] stood at 73%.
For the molecule `CN(C)CCN1CC(=O)Nc2cc([N+](=O)[O-])ccc21.Cl`, the “Ratio CC50/IC50” value in data set [1] is on record as above 10. Besides, in the data set with Trichomonas vaginalis [2], the inhibition at 300 µM is 98.5%. In the data set with Vero, this molecule returned an Activity of 0%. Further, the inhibition at 150 µM in the data set on Trichomonas vaginalis [3] was determined as 96.9%. Besides, in the data set on Trichomonas vaginalis [4], the inhibition at 18.75 µM worked out at 28.4%. In addition, the inhibition at 37.5 µM in the data set with Trichomonas vaginalis [5] came to 40.8%. Further, the inhibition of growth at 10 µg/mL in the data set with Trichomonas vaginalis [10] was determined as 7%. In addition, the CC50 at 24 h in data set [6] was above 300 µM. In addition, the inhibition at 75 µM in the data set with Trichomonas vaginalis [7] was 83.7%. Also, the IC50 in the data set with Trichomonas vaginalis [8] was determined as 36.8 µM. Moreover, in the data set on Trichomonas vaginalis [9], the inhibition at 9.37 µM stood at 5.16%.
As to `O=c1[nH]c2cc([N+](=O)[O-])ccc2n(CCCCCCl)c1=O`, the inhibition at 300 µM with Trichomonas vaginalis [2] was determined as 94%. The inhibition at 150 µM in the data set with Trichomonas vaginalis [3] was 47.1%. Moreover, the inhibition at 18.75 µM in the data set with Trichomonas vaginalis [4] was 0.42%. In the data set on Trichomonas vaginalis [5], the inhibition at 37.5 µM turned out to be 0.85%. Moreover, the inhibition at 75 µM in the data set on Trichomonas vaginalis [7] turned out to be 9.7%. For the same molecule, the IC50 in the data set with Trichomonas vaginalis [8] stood at 147 µM. Besides, the inhibition at 9.37 µM in the data set on Trichomonas vaginalis [9] came to 0%.
For `O=c1[nH]c2cc([N+](=O)[O-])ccc2n(CCCCCl)c1=O`, the inhibition at 300 µM in the data set on Trichomonas vaginalis [2] was determined as 94.9%. Moreover, the inhibition at 150 µM in the data set on Trichomonas vaginalis [3] turned out to be 40.6%. For the same molecule, the inhibition at 18.75 µM in the data set on Trichomonas vaginalis [4] turned out to be 12.7%. The inhibition at 37.5 µM with Trichomonas vaginalis [5] was found to be 18%. Moreover, the inhibition at 75 µM with Trichomonas vaginalis [7] is 21.4%. The IC50 with Trichomonas vaginalis [8] was 151 µM. Besides, the inhibition at 9.37 µM in the data set with Trichomonas vaginalis [9] turned out to be 8.25%.
Regarding `O=C1CN(CCCCCCl)c2ccc([N+](=O)[O-])cc2N1`, in the data set with Trichomonas vaginalis [10], the inhibition of growth at 10 µg/mL came out at 73%.
Consider `CN1C(=O)CN(CCCCCCl)c2ccc([N+](=O)[O-])cc21`, for which the inhibition of growth at 10 µg/mL in the data set with Trichomonas vaginalis [10] was determined as 73%.
As for `CN1C(=O)CN(CCN2CCCCC2)c2ccc([N+](=O)[O-])cc21`, the “Ratio CC50/IC50” value in data set [1] is listed as above 10. In addition, the inhibition at 300 µM in the data set with Trichomonas vaginalis [2] was determined as 100%. This molecule gave an Activity with Vero of 0%. The inhibition at 150 µM with Trichomonas vaginalis [3] is 100%. Besides, in the data set on Trichomonas vaginalis [4], the inhibition at 18.75 µM came to 13.9%. In the data set with Trichomonas vaginalis [5], the inhibition at 37.5 µM was determined as 59.6%. For the same molecule, in [6], the CC50 at 24 h was above 300 µM. Further, the inhibition at 75 µM in the data set with Trichomonas vaginalis [7] came out at 96%. For the same molecule, the 50% inhibitory concentration (IC50) in the data set on Trichomonas vaginalis [8] turned out to be 29.9 µM. Moreover, in the data set with Trichomonas vaginalis [9], the inhibition at 9.37 µM was 7.8%.
Regarding `CCN(CC)CCCN1CC(=O)Nc2cc([N+](=O)[O-])ccc21.Cl`, the “Ratio CC50/IC50” value in [1] is listed as above 10. The inhibition at 300 µM in the data set with Trichomonas vaginalis [2] is 88.6%. For the same molecule, the Activity with Vero is given as 0.16%. Besides, in the data set on Trichomonas vaginalis [3], the inhibition at 150 µM was 64.2%. In addition, the inhibition at 18.75 µM with Trichomonas vaginalis [4] is 28.8%. For the same molecule, the inhibition at 37.5 µM in the data set with Trichomonas vaginalis [5] worked out at 55.5%. Also, the CC50 at 24 h in data set [6] was above 300 µM. For the same molecule, the inhibition at 75 µM in the data set on Trichomonas vaginalis [7] was 59%. Moreover, the IC50 in the data set on Trichomonas vaginalis [8] stood at 38.9 µM. Also, the inhibition at 9.37 µM with Trichomonas vaginalis [9] stood at 23.1%.
As to `O=c1[nH]c2cc([N+](=O)[O-])ccc2n(CCCCCBr)c1=O`, the inhibition at 300 µM in the data set on Trichomonas vaginalis [2] was found to be 79.6%. In addition, the inhibition at 150 µM with Trichomonas vaginalis [3] is 49%. Besides, the inhibition at 18.75 µM in the data set with Trichomonas vaginalis [4] was determined as 4.09%. Moreover, the inhibition at 37.5 µM with Trichomonas vaginalis [5] worked out at 11.6%. Also, in the data set on Trichomonas vaginalis [7], the inhibition at 75 µM came out at 20.1%. Besides, the IC50 in the data set with Trichomonas vaginalis [8] turned out to be 145 µM. Besides, the inhibition at 9.37 µM with Trichomonas vaginalis [9] was found to be 0%.
Regarding `O=c1[nH]c2cc([N+](=O)[O-])ccc2n(CCCCCCCl)c1=O`, in the data set with Trichomonas vaginalis [2], the inhibition at 300 µM was 95.8%. For the same molecule, in the data set with Trichomonas vaginalis [3], the inhibition at 150 µM is 70.8%. The inhibition at 18.75 µM in the data set with Trichomonas vaginalis [4] amounted to 17%. Besides, the inhibition at 37.5 µM in the data set on Trichomonas vaginalis [5] came to 15.1%. Besides, the inhibition at 75 µM with Trichomonas vaginalis [7] turned out to be 45.1%. Besides, the IC50 with Trichomonas vaginalis [8] came to 106 µM. For the same molecule, in the data set on Trichomonas vaginalis [9], the inhibition at 9.37 µM was 9.43%.
